These results are taken from publication PMC7801683 (2021).

As usually defined, the Tm is the temperature at which the thermal transition is half complete. In general, ΔTm refers to the shift of the melting midpoint relative to a reference.

The subject of assay [1] is SCA31 hpRNA (RNA, hairpin) GUACUGGAACAUGUUUCAUGUGGAAGUAC
Description: ESI-TOF MS. Conditions: 100 mM ammonium acetate; 50% methanol; 10 µM RNA, 40 µM compound.

For assay [2], the system named is r(UAAAA)9 (RNA, repeat) UAAAAUAAAAUAAAAUAAAAUAAAAUAAAAUAAAAUAAAAUAAAA
Description: UV melting. The following applies: 100 mM NaCl; 10 mM sodium cacodylate pH 7.0; 20 µM compound, 2 µM RNA.

Assay [3] deals with GGA/GGA internal loop RNA duplex (UGGAA/UGGAA pentad) (RNA, mismatch bulge abasic) GUACUGGAACAUG/CAUGUGGAAGUAC
Nature of the assay: UV melting. The following applies: 100 mM NaCl; 10 mM sodium cacodylate pH 7.0; 20 µM compound, 4 µM RNA.

Assay [4] has as its system 5'-biotin-TEG r(UGGAA)9 (RNA, repeat) UGGAAUGGAAUGGAAUGGAAUGGAAUGGAAUGGAAUGGAAUGGAA
Nature of the assay: SPR. The following applies: 150 mM NaCl; 10 mM HEPES pH 7.4, 3 mM EDTA, 0.05% P20; 500 nM compound.

Assay [5] relates to r(UGGAA)9 (RNA, repeat) UGGAAUGGAAUGGAAUGGAAUGGAAUGGAAUGGAAUGGAAUGGAA
Nature of the assay: EMSA. The following applies: 100 mM NaCl; 10 mM sodium cacodylate pH 7.0, room temperature; 2 µM compound. (In general: Mobility shift assays separate free from complexed probe on a gel.)

Assay [6] deals with SCA31 hpRNA (RNA, hairpin) GUACUGGAACAUGUUUCAUGUGGAAGUAC
Nature of the assay: NMR solution structure. The following applies: 100 mM NaCl; 20 mM sodium phosphate pH 6.9, 288 K.

The test system is the same in assay [7]. Nature of the assay: ITC. Conditions: 100 mM NaCl; 10 mM sodium cacodylate pH 7.0, 25 °C; apparent; single set of identical sites.
Assay [8] relates to r(UGGAA)9 (RNA, repeat) UGGAAUGGAAUGGAAUGGAAUGGAAUGGAAUGGAAUGGAAUGGAA
Nature of the assay: UV melting. The following applies: 100 mM NaCl; 10 mM sodium cacodylate pH 7.0; 20 µM compound, 2 µM RNA; Tm 73.7 °C with NCD, none without.

Assay [9] deals with GGA/AGA internal loop RNA duplex (RNA, mismatch bulge abasic) GUACUGGAACAUG/CAUGUAGAAGUAC
Nature of the assay: UV melting. The following applies: 100 mM NaCl; 10 mM sodium cacodylate pH 7.0; 20 µM compound, 4 µM RNA.

On to `Cc1ccc2ccc(NC(=O)OCCCNCCCOC(=O)Nc3ccc4ccc(C)nc4n3)nc2n1`, for which the binding result in [1] was “yes”; in assay [2] it was “no”; in assay [4], “yes”; in assay [5], “yes”; in [6], “yes”; in assay [8] it was “yes”. The Tm in assay [3] amounted to 21.5 °C. The “Kd(app)” value in [7] is listed as 32 nM. Moreover, the ΔTm in assay [9] stood at 5.2 °C.
